Experimental data published in Sander's compilation of Henry's law constants (doi:10.1136/oem.51.1.68).

Assay: Henry solubility constant Hcp at 310 K (mol/(m3 Pa))
Details: reference: Kaneko et al. (1994)

| SMILES | Henry solubility constant Hcp at 310 K |
| --- | --- |
| CCCCCO [1-pentanol] | 0.42 |
| CCCO [1-propanol] | 0.72 |
| CCC(C)CO (centres undefined) [2-methyl-1-butanol] | 0.33 |
| CC(C)CO [2-methyl-1-propanol] | 0.44 |
| CC(=O)OCC(C)C [2-methylpropyl ethanoate] | 0.01 |
| CC(C)O [2-propanol] | 0.58 |
| CC(=O)OC(C)C [2-propyl ethanoate] | 0.013 |
| CC(=O)OCCC(C)C [3-methylbutyl ethanoate] | 0.0088 |
| CCCCOC(C)=O [butyl ethanoate] | 0.013 |
| CCO [ethanol] | 0.83 |
| CCOC(C)=O [ethyl ethanoate] | 0.028 |
| COC(C)=O [methyl ethanoate] | 0.042 |
| CCCCCOC(C)=O [pentyl ethanoate] | 0.0093 |
| CCCOC(C)=O [propyl ethanoate] | 0.021 |
